Laboratory results from US10273235B2, “Compositions and methods for inhibiting β-lactamase” (LegoChem Biosciences, Inc., priority 2015, dated 2019).
Several values for one entry are separate records, joined by “and”; a condition that tells them apart may be missing. Identical values can stand only once. Like-named read-outs stand apart in the source and are kept apart here.

Assays:
Assay type in all cases: cell-based
P. aeruginosa ATCC27853 = assay: BLI potentiation MIC (broth microdilution), P. aeruginosa ATCC27853 (PoxB, AmpC); details: no BLI, incubation 19 h; for MIC: Pseudomonas aeruginosa, ATCC27853, 19 h
Procedure: (§1) MIC90 (μg/mL) is the lowest concentration of an antibiotic that will inhibit the visible growth of 90% of microorganisms after incubation as compared with a control group to which the antibiotic is not treated.
(§2) MIC values were measured by the broth microdilution method developed by the Clinical and Laboratory Standards Institute (CLSI) (see CLSI M07-A9, Methods for Dilution Antimicrobial Susceptibility Test for Bacteria that Grow Aerobically; Approved Standard-Ninth Edition (2012): CLSI, Villanova, Pa.). The in vitro antibacterial activity was measured with respect to the following 9 clinical isolates: P. aeruginosa (3 strains); K. pneumoniae (6 strains). The in vitro antibacterial activity of selected compounds was measured with respect to the following 15 clinical isolates: K. pneumoniae (15 strains).

P. aeruginosa ARC3506 = assay: BLI potentiation MIC, P. aeruginosa ARC3506 (VEB-1, OXA-10, OprD−, AmpC); details: Pseudomonas aeruginosa, ARC3506, no BLI, incubation 19 h
Procedure: as §1, §2

P. aeruginosa ARC3514 = assay: BLI potentiation MIC, P. aeruginosa ARC3514 (KPC-2, OprD−, AmpC); details: no BLI, incubation 19 h; for MIC: Pseudomonas aeruginosa, ARC3514, 19 h
Procedure: as §1, §2

K. pneumoniae ATCC700603 = assay: BLI potentiation MIC, K. pneumoniae ATCC700603 (SHV-3); details: no BLI, incubation 19 h
Procedure: as §1, §2

K. pneumoniae NDM-506 = assay: BLI potentiation MIC, K. pneumoniae NDM-506; details: Klebsiella pneumoniae, NDM506, no BLI, incubation 19 h
Procedure: as §1, §2

K. pneumoniae 5576 = assay: BLI potentiation MIC, K. pneumoniae 5576 (SHV-11, CMY-2, DHA-1, TEM-1); details: no BLI, incubation 19 h; for MIC: Klebsiella pneumoniae, 5576, 19 h
Procedure: as §1, §2

K. pneumoniae 3784 = assay: BLI potentiation MIC, K. pneumoniae 3784 (SHV-11, SHV-12, DHA-1); details: no BLI, incubation 19 h; for MIC: Klebsiella pneumoniae, 3784, 19 h
Procedure: as §1, §2

K. pneumoniae 4006 = assay: BLI potentiation MIC, K. pneumoniae 4006 (SHV-12, CTX-M-15, TEM-1, OXA-9); details: no BLI, incubation 19 h
Procedure: as §1, §2

K. pneumoniae 4248 = assay: BLI potentiation MIC, K. pneumoniae 4248 (SHV-11, CTX-M-15, TEM-1, OXA-1); details: no BLI, incubation 19 h; for MIC: Klebsiella pneumoniae, 4248, 19 h
Procedure: as §1, §2

K. pneumoniae 5216 = assay: BLI potentiation MIC, K. pneumoniae 5216 (TEM-1A); details: no BLI, incubation 19 h; for MIC: Klebsiella pneumoniae, 5216, 19 h
Procedure: as §1, §2

K. pneumoniae 6540 = assay: BLI potentiation MIC, K. pneumoniae 6540; details: no BLI, incubation 19 h
Procedure: as §1, §2

K. pneumoniae 6839 = assay: BLI potentiation MIC, K. pneumoniae 6839 (SHV-11, SHV-12, DHA-1); details: no BLI, incubation 19 h; for MIC: Klebsiella pneumoniae, 6839, 19 h
Procedure: as §1, §2

K. pneumoniae 100 = assay: BLI potentiation MIC, K. pneumoniae 100; details: Klebsiella pneumoniae, 100, no BLI, incubation 19 h
Procedure: as §1, §2

K. pneumoniae 101 = assay: BLI potentiation MIC, K. pneumoniae 101; details: no BLI, incubation 19 h; for MIC: Klebsiella pneumoniae, 101, 19 h
Procedure: as §1, §2

K. pneumoniae 5971(KOX) = assay: BLI potentiation MIC, K. pneumoniae 5971(KOX); details: no BLI, incubation 19 h; for MIC: Klebsiella pneumoniae, 19 h
Procedure: as §1, §2

K. pneumoniae KU2 = assay: BLI potentiation MIC, K. pneumoniae KU2; details: Klebsiella pneumoniae, no BLI, incubation 19 h
Procedure: as §1, §2

K. pneumoniae MP14 = assay: BLI potentiation MIC, K. pneumoniae MP14; details: no BLI, incubation 19 h; for MIC: Klebsiella pneumoniae, MP14, 19 h
Procedure: as §1, §2

K. pneumoniae 5117 = assay: BLI potentiation MIC, K. pneumoniae 5117 (SHV-11, TEM-1); details: no BLI, incubation 19 h; for MIC: Klebsiella pneumoniae, 5117, 19 h
Procedure: as §1, §2

K. pneumoniae CL5761 = assay: MIC of strain used for extraction of enzymes, K. pneumoniae CL5761 (KPC-3, TEM-216, SHV-5); details: Klebsiella pneumoniae, CL5761, no BLI
Procedure: as §1, §2

E. coli ECO200 = assay: MIC of strain used for extraction of enzymes, E. coli ECO200 (NDM-1, TEM-1, CTX-M-15, EC (AmpC), OXA-2 type); details: Escherichia coli
E. coli K0519020 = assay: MIC of strain used for extraction of enzymes, E. coli K0519020 (CTX-M-15, TEM-1, OXA-1, AmpC (NC_000913)); details: Escherichia coli, K0519020, no BLI
E. coli TOPDXA048 = assay: MIC of strain used for extraction of enzymes, E. coli TOPDXA048 (OXA-48, TEM-116, AmpC (NC_000913)); details: Escherichia coli
E. aerogenes K9911729 = assay: MIC of strain used for extraction of enzymes, E. aerogenes K9911729 (CMY-10, TEM-1, SHV-12, AmpC (DQ478697)); details: Klebsiella aerogenes, K9911729, no BLI
K. pneumoniae 7586 = assay: BLI potentiation MIC, K. pneumoniae 7586; details: no BLI, incubation 19 h
Procedure: as §1, §2

K. pneumoniae 89 = assay: BLI potentiation MIC, K. pneumoniae 89; details: no BLI, incubation 19 h
Procedure: as §1, §2

[1] = read-out: MIC of Meropenem alone
[2] = read-out: MIC of LCB10-0200 alone

## C[C@@H](O)[C@H]1C(=O)N2C(C(=O)O)=C(S[C@@H]3CN[C@H](C(=O)N(C)C)C3)[C@H](C)[C@H]12 [Meropenem]
P. aeruginosa ATCC27853; [1]
  MIC: 2 µg/mL
P. aeruginosa ARC3506; [1]
  MIC: 64 µg/mL
P. aeruginosa ARC3514; [1]
  MIC: > 64 µg/mL
K. pneumoniae ATCC700603; Klebsiella pneumoniae, ATCC700603, 19 h, read-out: MIC of Meropenem alone
  MIC: 0.125 µg/mL
K. pneumoniae ATCC700603
  MIC of Meropenem alone: 0.25 µg/mL
K. pneumoniae NDM-506; [1]
  MIC: > 64 µg/mL
K. pneumoniae 5576; [1]
  MIC: 1 µg/mL
K. pneumoniae 5576
  MIC of Meropenem alone: 2 µg/mL
K. pneumoniae 3784; [1]
  MIC: 2 µg/mL
K. pneumoniae 4006; Klebsiella pneumoniae, 4006, 19 h, read-out: MIC of Meropenem alone
  MIC: 0.5 µg/mL
K. pneumoniae 4006
  MIC of Meropenem alone: 1 µg/mL
K. pneumoniae 4248; [1]
  MIC: 0.125 µg/mL
K. pneumoniae 5216; [1]
  MIC: 64 µg/mL
K. pneumoniae 5216
  MIC of Meropenem alone: 32 µg/mL
K. pneumoniae 6540; Klebsiella pneumoniae, 6540, 19 h, read-out: MIC of Meropenem alone
  MIC: 1 µg/mL
K. pneumoniae 6540
  MIC of Meropenem alone: 0.5 µg/mL
K. pneumoniae 6839; [1]
  MIC: 4 µg/mL
K. pneumoniae 6839
  MIC of Meropenem alone: 2 µg/mL
K. pneumoniae 100; [1]
  MIC: 4 µg/mL
K. pneumoniae 101; [1]
  MIC: > 64 µg/mL
K. pneumoniae 101
  MIC of Meropenem alone: 64 µg/mL and 32 µg/mL
K. pneumoniae 5971(KOX); [1]
  MIC: 64 µg/mL
K. pneumoniae 5971(KOX)
  MIC of Meropenem alone: 32 µg/mL
K. pneumoniae KU2; [1]
  MIC: > 64 µg/mL
K. pneumoniae MP14; [1]
  MIC: > 64 µg/mL
K. pneumoniae MP14
  MIC of Meropenem alone: 64 µg/mL
K. pneumoniae 5117; [1]
  MIC: 8 µg/mL
K. pneumoniae 5117
  MIC of Meropenem alone: 4 µg/mL
K. pneumoniae CL5761; [1]
  MIC: > 64 µg/mL
E. coli ECO200; ECO200, read-out: MIC of Meropenem alone
  MIC: > 64 µg/mL
E. coli K0519020; [1]
  MIC: 1 µg/mL
E. coli TOPDXA048; TOPDXA048, read-out: MIC of Meropenem alone
  MIC: 0.25 µg/mL
E. aerogenes K9911729; [1]
  MIC: 0.5 µg/mL

## CC(C)(O/N=C(\C(=O)N[C@@H]1C(=O)N2C(C(=O)[O-])=C(C[n+]3cnc(N)c(NCCNC(=O)c4cc(=O)c(O)cn4O)c3)CS[C@H]12)c1nc(N)sc1Cl)C(=O)O [LCB10-0200]
P. aeruginosa ATCC27853; [2]
  MIC: 0.25 µg/mL
P. aeruginosa ATCC27853
  MIC of LCB10-0200 alone: 0.5 μg/mL
P. aeruginosa ARC3506; [2]
  MIC: 2 µg/mL
P. aeruginosa ARC3514; [2]
  MIC: 0.25 µg/mL
P. aeruginosa ARC3514
  MIC of LCB10-0200 alone: 0.5 μg/mL
K. pneumoniae NDM-506; [2]
  MIC: > 64 µg/mL
K. pneumoniae 5576; [2]
  MIC: > 64 µg/mL
K. pneumoniae 5576
  MIC of LCB10-0200 alone: 64 μg/mL and 32 μg/mL
K. pneumoniae 3784; [2]
  MIC: 32 µg/mL
K. pneumoniae 3784
  MIC of LCB10-0200 alone: 64 μg/mL
K. pneumoniae 4248; [2]
  MIC: 2 µg/mL
K. pneumoniae 4248
  MIC of LCB10-0200 alone: 4 μg/mL
K. pneumoniae 5216; [2]
  MIC: > 64 µg/mL
K. pneumoniae 5216
  MIC of LCB10-0200 alone: 64 μg/mL and 32 μg/mL
K. pneumoniae 7586; Klebsiella pneumoniae, 7586, 19 h, read-out: MIC of LCB10-0200 alone
  MIC: 4 µg/mL
K. pneumoniae 7586
  MIC of LCB10-0200 alone: 2 μg/mL
K. pneumoniae 6839; [2]
  MIC: 32 µg/mL
K. pneumoniae 6839
  MIC of LCB10-0200 alone: 16 μg/mL
K. pneumoniae 89; Klebsiella pneumoniae, 89, 19 h, read-out: MIC of LCB10-0200 alone
  MIC: 0.125 µg/mL
K. pneumoniae 89
  MIC of LCB10-0200 alone: 0.0625 μg/mL
K. pneumoniae 100; [2]
  MIC: 0.0625 µg/mL
K. pneumoniae 101; [2]
  MIC: 16 µg/mL
K. pneumoniae 101
  MIC of LCB10-0200 alone: 32 μg/mL
K. pneumoniae 5971(KOX); [2]
  MIC: 32 µg/mL
K. pneumoniae 5971(KOX)
  MIC of LCB10-0200 alone: 64 μg/mL
K. pneumoniae KU2; [2]
  MIC: 32 µg/mL
K. pneumoniae MP14; [2]
  MIC: 0.125 µg/mL
K. pneumoniae MP14
  MIC of LCB10-0200 alone: 0.25 μg/mL
K. pneumoniae 5117; [2]
  MIC: 0.125 µg/mL
K. pneumoniae 5117
  MIC of LCB10-0200 alone: 0.25 μg/mL
K. pneumoniae CL5761; [2]
  MIC: 32 µg/mL
E. coli ECO200; ECO200, read-out: MIC of LCB10-0200 alone
  MIC: > 64 µg/mL
E. coli K0519020; [2]
  MIC: 64 µg/mL
E. coli TOPDXA048; TOPDXA048, read-out: MIC of LCB10-0200 alone
  MIC: 0.25 µg/mL
E. aerogenes K9911729; [2]
  MIC: 2 µg/mL
